Test results as given in ChEMBL document CHEMBL4265953, “Exploration of novel pyrrolo[2,1-f][1,2,4]triazine derivatives with improved anticancer efficacy as dual inhibitors of c-Met/VEGFR-2” (Eur J Med Chem, 2018).
In brackets after ≈: the same amount, converted by molar mass.

Experiments:
[1] = Half life in Sprague-Dawley rat at 10 mg/kg, po by LC-MS analysis; type: ADME, organism-based; settings: in vivo
[2] = AUC in Sprague-Dawley rat at 10 mg/kg, po by LC-MS analysis; type: ADME, organism-based; settings: in vivo
[3] = Clearance in Sprague-Dawley rat at 2 mg/kg, iv by LC-MS analysis; type: ADME, organism-based; settings: in vivo
[4] = physchem
[5] = AUC in Sprague-Dawley rat at 2 mg/kg, iv by LC-MS analysis; type: ADME, organism-based; settings: in vivo
[6] = Cmax in Sprague-Dawley rat at 2 mg/kg, iv by LC-MS analysis; type: ADME, organism-based; parameters: dose 2 mg/kg, route intravenous; settings: in vivo
[7] = physchem; settings: n-octanol/water
[8] = Cmax in Sprague-Dawley rat at 10 mg/kg, po by LC-MS analysis; type: ADME, organism-based; parameters: dose 10 mg/kg, route oral; settings: in vivo
[9] = Tmax in Sprague-Dawley rat at 10 mg/kg, po by LC-MS analysis; type: ADME, organism-based; settings: in vivo
[10] = Half life in Sprague-Dawley rat at 2 mg/kg, iv by LC-MS analysis; type: ADME, organism-based; settings: in vivo
[11] = Oral bioavailability in Sprague-Dawley rat at 10 mg/kg by LC-MS analysis; type: ADME, organism-based; settings: in vivo
[12] = octanol/water, 0.5 h

SMILES	half-life [1]	AUC [2]	clearance [3]	solubility at 1 h [4]	AUC [5]	Cmax [6]	logP at 0.5 h [7]	Cmax [8]	Tmax [9]	half-life [10]	bioavailability [11]	logP [12]
Cc1c(OCC(O)CN2CCN(C)CC2)cn2ncnc(Oc3ccc(NC(=O)C4(C(=O)Nc5ccc(F)cc5)CC4)cc3F)c12 (stereo not given)	5 h	1170 ng·h/mL	139 mL/min/kg	20.5 µg/mL (≈ 32.2 µM)	239 ng·h/mL	72.1 ng/mL	2.98	129 ng/mL	5 h	2.16 h	98.1%	–
COc1cc2nccc(Oc3ccc(NC(=O)C4(C(=O)Nc5ccc(F)cc5)CC4)cc3)c2cc1OC.O=C(O)C[C@H](O)C(=O)O [CABOZANTINIB S-MALATE]	–	–	–	52 µg/mL	–	–	–	–	–	–	–	1.89
COc1cc2nccc(Oc3ccc(NC(=O)C4(C(=O)Nc5ccc(F)cc5)CC4)cc3)c2cc1OC [CABOZANTINIB]	–	–	–	< 0.1 µg/mL	–	–	3.89	–	–	–	–	–
